In patent publication US9393271B2, “GHRH agonists for islet cell transplantation and function and the treatment of diabetes” (UNIVERSITY OF MIAMI, priority 2012, dated 2016):
Non-standard residues stand in square brackets, D forms with d. Residues, ends and D or L forms follow the SMILES beside them. NMeY = CN[C@@H](Cc1ccc(O)cc1)C(=O)O; Nle = CCCC[C@H](N)C(=O)O; Orn = NCCC[C@H](N)C(=O)O; Abu = CC[C@H](N)C(=O)O

Experiments:
[1] = test system: GH level; experiment: In vivo endocrine activity (GH release), intravenous administration; conditions: rat
Description: In vivo tests on endocrine activity of new GHRH agonists (Intravenous administration). For in vivo tests based on intravenous administration, adult male Sprague-Dawley rats were anesthetized with pentobarbital (6 mg/100/g, b.w.), and GHRH agonists were injected 20 minutes after the injection of pentobarbital. Blood samples were taken from the jugular vein (pretreated level), immediately after hGHRH(1-29)NH2 injection (as a control) or after hGHRH analogs injection. Blood samples were taken from the jugular vein 5, 15 and 30 minutes after the injection. The blood samples were centrifuged, plasma was removed and the GH level was measured by ELISA.

[2] = test system: GH level; experiment: In vivo endocrine activity (GH release), subcutaneous administration; conditions: rat, s.c.
Description: Subcutaneous Administration. Adult male rats were used and anesthetized with pentobarbital (6 mg/100 g, b.w.), by i.p. injection. […] Blood samples were taken from the jugular vein 5, 15 and/or 30 minutes after the injection. The blood samples were centrifuged, plasma was removed and the GH level was measured by ELISA. The results are summarized in terms of potency in Table 9.

[3] = test system: INS-1 cells; experiment: INS-1 cell viability (CellTiter 96 AQueous One Solution); type: cell-based, rat; conditions: 10^-7 to 10^-9 M, 24 hrs
Description: (§1) Rat insulinoma cells (INS-1) were cultured in RPMI Medium 1640 (PAA) containing 2 mM L-glutamine, 10% FBS, 1 mM Na-pyruvate, 50 μM 2-mercaptoethanol, and 100 U/mL penicillin/streptomycin (Gibco) at 37° C. in a 5% CO2 humidified incubator. Medium was exchanged every second day and cells were passaged once per week. INS-1 cells were treated with the GHRH agonist P-27403 at concentrations from 10^−7 to 10^−9 M for 24 hrs and was analyzed for viability and apoptosis. Viability was assessed using CellTiter 96 AQueous One Solution Cell Proliferation Assay (Promega) according to the manufacturer's instructions. Apoptosis was assayed by determination of caspase 3/7 activity using Caspase-Glo 3/7 Assay (Promega) according to manufacturer's instructions.
INS-1 cells were grown for 72 hours before experimentation. Cells were treated with different GHRH agonist peptides (MR-356/P-20356, MR-361/P-20361, MR-367/P-20367, MR-403/P-27403, MR-409/P-27409, MR-502/P-25502) at different concentrations (10^−6-10^−10 M) or with 0.1% (vol/vol) DMSO as control for 24 h, 48 h and 72 h. Viability was assessed using CellTiter 96 AQueous One Solution Cell Proliferation Assay (Promega) according to the manufacturer's instructions. Treatment of INS-1 cells with GHRH agonist peptides for 72 h improved cell viability. Cell viability was expressed as percent of cells treated with control DMSO (FIG. 7).

[4] = test system: INS-1 cells; experiment: INS-1 apoptosis, caspase 3/7 activity (Caspase-Glo 3/7); type: cell-based, rat; conditions: 24 hrs
Description: as §1
INS-1 cells were grown for 72 h before experimentation. Cells were treated with various GHRH agonist peptides at different concentrations or with 0.1% (vol/vol) DMSO as control for 24 h, 48 h and 72 h. Apoptosis was assayed by determination of caspase 3/7 activity using Caspase-Glo 3/7 Assay (Promega) according to the manufacturer's instructions.

[5] = test system: INS-1 cells; experiment: INS-1 proliferation (BrdU Cell Proliferation Assay); type: cell-based, rat
Description: For determination of proliferation activity, BrdU incorporation was performed in INS-1 cells following exposure to P-27403. Proliferation was measured using BrdU Cell Proliferation Assay (Millipore) following the manufacturer's description. The maximal enhancement in proliferation rate of 16% compared to control was found at 10^−8 M concentration of P-27403 (FIG. 1C).
INS-1 cells were grown for 72 h before experimentation. Cells were treated with GHRH agonists MR356, MR367, and MR403 at different concentrations or with 0.1% (vol/vol) DMSO as control for 24 h, 48 h and 72 h. Proliferation was measured using BrdU Cell Proliferation Assay (Millipore) following the manufacturer's description.

[6] = test system: rat islets; experiment: Viability of rat islets alone or in co-culture with adrenal cells; type: cell-based; conditions: rat islets alone, 10^-8 M, 24 hrs
Description: Pancreatic islets were isolated from female Wistar rats as described in prior art, and according to guidelines established by the University Institutional Animal Care and Use Committee. Briefly, animals were anesthetized by 3% isoflurane and digestion solution (Collagenase V; Sigma-Aldrich) was injected via the pancreatic duct. Islets were isolated by discontinuous Ficoll gradient centrifugation (Sigma-Aldrich). Isolated islets were cultured in RPMI 1640 (PAA) supplemented with 10% FBS at 37° C. in a 5% CO2 atmosphere prior to further experimentation. Yield and purity of islets were determined by microscopic sizing after staining with dithizone (Sigma-Aldrich) as previously described.
Female Wistar rats were used as adrenal donors according to guidelines established by the University Institutional Animal Care and Use Committee. After euthanization, the adrenal glands were rapidly removed and kept in PBS at 4° C. After removal of adipose tissue, the capsule was removed. The tissue was then incubated at 37° C. in PBS containing collagenase type II (2.0 mg/ml; Sigma-Aldrich) and DNase (0.15 mg/ml; Sigma-Aldrich). After incubation for 30 min, the digestion was stopped by adding cold PBS. […]
Isolated rat islets and co-cultured islets were treated with P-27403 at a concentration of 10^−8 M or with 0.1% DMSO as control for 24 hrs, and then analyzed for viability. […]

[7] = molecular target: T1, GHRH receptor (human pituitary membrane homogenates) (Homo sapiens, UniProt Q02643); experiment: GHRH receptor binding, ligand competition with 125I-labeled JV-1-42 (Table 7); design: Normal human pituitaries were purchased from the National Hormone and Peptide Program; tissue National Hormone and Peptide Program (A. F. Parlow, Harbor-UCLA Medical Center, Torrance, Calif.); host or cells: normal human pituitary, membrane fraction / homogenate; conditions: JI-38 = 1
T1 sequence (Q02643 23-423): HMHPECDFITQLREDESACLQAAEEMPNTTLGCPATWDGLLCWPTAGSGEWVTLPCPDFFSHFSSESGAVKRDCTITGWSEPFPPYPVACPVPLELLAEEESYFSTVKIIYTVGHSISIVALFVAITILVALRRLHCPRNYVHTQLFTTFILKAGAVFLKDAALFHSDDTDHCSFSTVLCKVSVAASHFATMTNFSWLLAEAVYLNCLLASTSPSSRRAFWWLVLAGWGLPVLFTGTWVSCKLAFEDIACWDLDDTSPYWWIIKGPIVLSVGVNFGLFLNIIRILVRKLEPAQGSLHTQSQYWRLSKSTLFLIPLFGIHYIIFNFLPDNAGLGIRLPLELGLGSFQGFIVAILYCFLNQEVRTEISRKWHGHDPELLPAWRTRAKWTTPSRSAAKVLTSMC

Relative affinitiy (Binding potency) vs JI-38 [7]: 27.19
Structure (SMILES): CCCC[C@H](NC(=O)[C@@H](NC(=O)[C@H](CC(=O)O)NC(=O)[C@H](CCC(N)=O)NC(=O)[C@H](CC(C)C)NC(=O)[C@H](CC(C)C)NC(=O)[C@H](CCCN)NC(=O)[C@H](CCCNC(=N)N)NC(=O)[C@H](C)NC(=O)[C@H](CO)NC(=O)[C@H](CC(C)C)NC(=O)[C@H](CCC(N)=O)NC(=O)[C@H](CC)NC(=O)[C@H](CC(C)C)NC(=O)[C@@H](NC(=O)[C@H](CCCN)NC(=O)[C@H](CCCNC(=N)N)NC(=O)[C@H](Cc1ccc(O)cc1)NC(=O)[C@H](CO)NC(=O)[C@H](CCC(N)=O)NC(=O)[C@@H](NC(=O)[C@H](Cc1ccccc1)NC(=O)[C@@H](NC(=O)[C@H](C)NC(=O)[C@H](CC(=O)O)NC(=O)[C@@H](C)NC(=O)[C@H](Cc1ccc(O)cc1)NC)[C@@H](C)CC)[C@@H](C)O)C(C)C)[C@@H](C)CC)C(=O)N[C@@H](CC(=O)O)C(=O)N[C@@H](CCCNC(=N)N)C(=O)NC [Peptide P-27403, [N—Me-Tyr^1, D-Ala^2, Gln^8, Orn^12, Abu^15, Orn^21, Nle^27, Asp^28]hGHRH(1-29)NH—CH3] (H-[NMeY][dA]DAIFTQSYR[Orn]VL[Abu]QLSAR[Orn]LLQDI[Nle]DR-NHMe)
Stimulation of growth hormone levels after i.v. administration (comparison in words) [1]: most potent | Stimulation of growth hormone levels after s.c. administration (comparison in words) [2]: stimulated greater growth hormone levels than hGHRH or JI-38 | Viability compared to control [3]: increased viability at all concentrations used | Apoptosis, caspase 3/7 activity ([4]; 10^-7 to 10^-9 M): overall reduction of apoptosis | Reduction of apoptosis (caspases 3/7 activity) ([4]; 10^-8 M): 14% | Reduction of apoptosis (caspases 3/7 activity) ([4]; 10^-9 M): 18% | Enhancement in proliferation rate compared to control ([5]; 10^-8 M, 24 hrs): 16% | Cell proliferation compared to control ([5]; different concentrations, 24 h, 48 h and 72 h): significantly induced cell proliferation | Islet viability [6]: increase in viability | Islet viability ([6]; listed as MR403): increase of viability
